According to patent US20240251788A1, “HERBICIDE/SAFENER COMBINATION BASED ON SAFENERS FROM THE CLASS OF SUBSTITUTED [(1,5-DIPHENYL-1H-1,2,4-TRIAZOL-3-YL)OXY]ACETIC ACIDS AND THEIR SALTS” (Bayer Aktiengesellschaft, priority 2021, published 2024):

How the values were obtained:
[1] = system: summer barley crop plant (HORVS: cv. Quench); experiment: Reduction in herbicide damage to summer barley by safener, greenhouse post-emergence application, visual scoring; type: in vivo; set-up: key to Reduction in the damage by safener (difference): difference in % visual damage, 0-100% scale vs untreated plants
Experimental: (§1) The seeds of the crop plants to be treated are laid out in soil in woodfiber pots (diameter ˜ 7 cm), covered with soil and grown in a greenhouse under good conditions for germination and growth. The trial plants were treated at the early leaf stage (BBCH10-BBCH12).
The herbicides used (component B) were used in the following formulations: • B2.81: WP • B2.85: WP • B2.92: WP • Clomazone: WP • Ethofumesate: WP • Flufenacet: SC • Fluroxypyr: EC • Saflufenacil: WP • Thiencarbazone-methyl: WP • Iodosulfuron-methyl-sodium: WP • Bifenox: WP • Glyphosate potassium salt: SL • Topramezone: WP
(§2) The dose of the respective herbicides was chosen here such that it causes an average degree of visually apparent damage (min. 20%, max. 75%) compared to untreated crop plants at the evaluation time on a control group of crop plants without safener treatment that were included in the same trial.
(§3) In the respective herbicide/safener combinations, the safeners (component A) in the form of wettable powders (WP) were added in the dose specified; in these cases, herbicide and safener are thus applied as a mixture.
(§4) Application was effected in each case on to the above-ground parts of the plant, at a water application rate corresponding to 300 l/ha and with addition of wetting agent (Mero, 1.5 l/h a).
In the applications that contained pinoxaden or topramezone, the herbicidal effect was enhanced by additionally adding ammonium sulfate (2 kg/ha).
(§5) After application, the plants were cultivated under good growth conditions in a greenhouse. On account of the different mechanisms of action of the herbicides used, the damaging effect of the herbicides was fully manifested at different times depending on the herbicide, and this in turn forms the basis for assessment of the safener action in the mixtures. Therefore, the damage was scored visually, depending on the herbicide/mixture, between 11 and 21 days after application.
(§6) The damage effect was assessed visually on a scale of 0-100% by comparison with untreated control plants, and averaged over 2 repeats per treatment.

[2] = system: summer wheat crop plant (TRZAS; cv. Triso); experiment: Reduction in herbicide damage to summer wheat by safener, greenhouse post-emergence application, visual scoring; type: in vivo; set-up: key to Reduction in the damage by safener (difference): difference in % visual damage (0-100% scale vs untreated) due to safener
Experimental: as §1
The herbicides used (component B) were used in the following formulations: • B2.81: WP • B2.85: WP • B2.92: WP • Cinmethylin: EC • Clomazone: WP • Ethofumesate: WP • Flufenacet: SC • Pinoxaden: WP • Saflufenacil: WP • Bicyclopyrone: WP • Picloram: WP • Metazachlor: SC • Flumioxazin: WP • Glyphosate potassium salt: SL • Topramezone: WP
as §2, §3, §4
In the applications that contained pinoxaden, bicyclopyrone or topramezone, the herbicidal effect was enhanced by additionally adding ammonium sulfate (2 kg/ha).
as §5, §6

[3] = summer barley (HORVS), herbicide B2.68 (thiencarbazone-methyl) 30 g a.i./ha + safener 100 g a.i./ha
[4] = summer barley (HORVS), herbicide B2.81 15 g a.i./ha + safener 100 g a.i./ha
[5] = summer barley (HORVS), herbicide B2.85 5 g a.i./ha + safener 100 g a.i./ha
[6] = summer barley (HORVS), herbicide B2.92 5 g a.i./ha + safener 100 g a.i./ha
[7] = summer barley (HORVS), herbicide B5.14 (clomazone) 200 g a.i./ha + safener 100 g a.i./ha
[8] = summer barley (HORVS), herbicide B5.21 (ethofumesate) 2000 g a.i./ha + safener 100 g a.i./ha
[9] = summer barley (HORVS), herbicide B6.4 (fluroxypyr) 500 g a.i./ha + safener 100 g a.i./ha
[10] = summer barley (HORVS), herbicide B9.10 (saflufenacil) 20 g a.i./ha + safener 100 g a.i./ha
[11] = summer wheat (TRZAS), herbicide B1.8 (pinoxaden) 200 g a.i./ha + safener 100 g a.i./ha
[12] = summer wheat (TRZAS), herbicide B2.81 15 g a.i./ha + safener 100 g a.i./ha
[13] = summer wheat (TRZAS), herbicide B2.85 5 g a.i./ha + safener 100 g a.i./ha
[14] = summer wheat (TRZAS), herbicide B2.92 5 g a.i./ha + safener 100 g a.i./ha
[15] = summer wheat (TRZAS), herbicide B5.14 (clomazone) 200 g a.i./ha + safener 100 g a.i./ha
[16] = summer wheat (TRZAS), herbicide B5.21 (ethofumesate) 2000 g a.i./ha + safener 100 g a.i./ha
[17] = summer wheat (TRZAS), herbicide B9.10 (saflufenacil) 10 g a.i./ha + safener 100 g a.i./ha
[18] = summer wheat (TRZAS), herbicide B9.10 (saflufenacil) 20 g a.i./ha + safener 100 g a.i./ha

COC(=O)COc1nc(-c2ccc(Cl)cc2F)n(-c2ccc(Cl)cc2F)n1 [Compound A1, methyl {[1,5-bis(4-chloro-2-fluorophenyl)-1H-1,2,4-triazol-3-yl]oxy}acetate]
Reduction in the damage by safener (difference) [1, 3]: 30
Reduction in the damage by safener (in %) [1, 3]: 100%
Reduction in the damage by safener (difference) [1, 4]: 70
Reduction in the damage by safener (in %) [1, 4]: 100%
Reduction in the damage by safener (difference) [1, 5]: 50
Reduction in the damage by safener (in %) [1, 5]: 83%
Reduction in the damage by safener (difference) [1, 6]: 65
Reduction in the damage by safener (in %) [1, 6]: 100%
Reduction in the damage by safener (difference) [1, 7]: 30
Reduction in the damage by safener (in %) [1, 7]: 75%
Reduction in the damage by safener (difference) [1, 8]: 60
Reduction in the damage by safener (in %) [1, 8]: 100%
Reduction in the damage by safener (difference) [1, 9]: 20
Reduction in the damage by safener (in %) [1, 9]: 100%
Reduction in the damage by safener (difference) [1, 10]: 20
Reduction in the damage by safener (in %) [1, 10]: 50%
Reduction in the damage by safener (difference) [2, 11]: 25
Reduction in the damage by safener (in %) [2, 11]: 71%
Reduction in the damage by safener (difference) [2, 12]: 70
Reduction in the damage by safener (in %) [2, 12]: 100%
Reduction in the damage by safener (difference) [2, 13]: 60
Reduction in the damage by safener (in %) [2, 13]: 100%
Reduction in the damage by safener (difference) [2, 14]: 60
Reduction in the damage by safener (in %) [2, 14]: 100%
Reduction in the damage by safener (difference) [2, 15]: 20
Reduction in the damage by safener (in %) [2, 15]: 50%
Reduction in the damage by safener (difference) [2, 16]: 70
Reduction in the damage by safener (in %) [2, 16]: 100%
Reduction in the damage by safener (difference) [2, 17]: 15
Reduction in the damage by safener (in %) [2, 17]: 43%
Reduction in the damage by safener (difference) [2, 18]: 15
Reduction in the damage by safener (in %) [2, 18]: 38%

C=C[C@]1(C(=O)N[C@H]2CO[C@@H](C(=O)OC)C2)CC(c2cc(F)cc(F)c2)=NO1 (relative stereo) [Compound B2.81, methyl (2R*,4R*)-4-[[(5S)-3-(3,5-difluorophenyl)-5-vinyl-4H-isoxazole-5-carbonyl]amino]tetrahydrofuran-2-carboxylate]
Damage to the plant by the herbicide (in %) ([1]; in vivo): 70%
Damage to the plant by the herbicide (in %) ([2]; in vivo): 70%

C=C[C@]1(C(=O)N[C@H]2C=C[C@@H](C(=O)OC)C2)CC(c2cc(F)cc(F)c2)=NO1 [Compound B2.85, methyl (1S,4R)-4-[[[(5S)-3-(3,5-difluorophenyl)-5-vinyl-4H-1,2-oxazol-5-yl]carbonyl]amino]cyclopent-2-ene-1-carboxylate]
Damage to the plant by the herbicide (in %) ([1]; in vivo): 60%
Damage to the plant by the herbicide (in %) ([2]; in vivo): 60%

COC(=O)COc1nc(-c2ccc(F)cc2F)n(-c2ccc(Cl)cc2F)n1 [Compound A5, methyl {[1-(4-chloro-2-fluorophenyl)-5-(2,4-difluorophenyl)-1H-1,2,4-triazol-3-yl]oxy}acetate]
Reduction in the damage by safener (difference) [1, 3]: 30
Reduction in the damage by safener (in %) [1, 3]: 100%
Reduction in the damage by safener (difference) [1, 4]: 20
Reduction in the damage by safener (in %) [1, 4]: 29%
Reduction in the damage by safener (difference) [1, 5]: 40
Reduction in the damage by safener (in %) [1, 5]: 67%
Reduction in the damage by safener (difference) [1, 6]: 50
Reduction in the damage by safener (in %) [1, 6]: 77%
Reduction in the damage by safener (difference) [1, 8]: 60
Reduction in the damage by safener (in %) [1, 8]: 100%
Reduction in the damage by safener (difference) [1, 9]: 15
Reduction in the damage by safener (in %) [1, 9]: 75%
Reduction in the damage by safener (difference) [1, 10]: 15
Reduction in the damage by safener (in %) [1, 10]: 38%
Reduction in the damage by safener (difference) [2, 11]: 20
Reduction in the damage by safener (in %) [2, 11]: 57%
Reduction in the damage by safener (difference) [2, 12]: 20
Reduction in the damage by safener (in %) [2, 12]: 29%
Reduction in the damage by safener (difference) [2, 13]: 50
Reduction in the damage by safener (in %) [2, 13]: 83%
Reduction in the damage by safener (difference) [2, 14]: 55
Reduction in the damage by safener (in %) [2, 14]: 92%
Reduction in the damage by safener (difference) [2, 15]: 15
Reduction in the damage by safener (in %) [2, 15]: 38%
Reduction in the damage by safener (difference) [2, 16]: 70
Reduction in the damage by safener (in %) [2, 16]: 100%

O=C(O)CNCP(=O)(O)O [Compound B7.5, glyphosate, reference compound]
Damage to the plant by the herbicide (in %) ([1]; summer barley (HORVS), herbicide dose 400 g a.i./ha, without safener): 60%
Damage to the plant by the herbicide (in %) ([2]; summer wheat (TRZAS), herbicide dose 400 g a.i./ha, without safener): 45%
